# Data published in US20240424022A1, “IN VIVO AND EX VIVO METHODS OF MODULATING T CELL EXHAUSTION/DE-EXHAUSTION” (Flagship Pioneering Innovations VI, LLC, priority 2021, published 2024).
# Experiments:
# [1] = system: colon adenocarcinoma cell line, MC38; test: Efficacy study in MC38 syngeneic mice, tumor growth inhibition; format: in vivo, mouse; details: doses per Table 5 (Anti-PD-1 200 ug IP BIWx3, by day 9; Perturbagen 1 10 mg/kg IP QDx10), Table 3 numbering
# [2] = system: CD8+ T cells derived from tumors; test: Flow cytometry of tumor infiltrating T lymphocytes, MC38 syngeneic mouse model; format: in vivo; details: MC38 mice, day after final dose, doses per Table 5, Table 3 numbering
# From the text: (§1) The day after the final dose, mice were euthanized, blood was collected by cardiac puncture and the tumors were removed. For all mice, a section of tumor was flash frozen in liquid nitrogen and stored at −80 degrees C. for future analysis; the remainder of the tumor was placed in cold RPMI (with glucose) and processed to generate a single cell suspension for flow cytometry. For a pre-selected subgroup of mice, a sample of the single cell suspension was collected for scRNAseq (3 samples from 5 treatment groups provided 15 samples for 2 runs on a 10× Chromium box). Each tumor was minced with a clean razor blade to the consistency of chopped garlic. The tumor was placed in a digestive enzyme mix (mouse tumor dissociation kit, Miltenyi) and incubated on a dissociator at 37 degrees C. for 45 min (OctoMax). Following dissociation, the slurry was filtered through a 70 μm nylon filter, centrifuged, and the pellet resuspended in Ammonium-Chloride-Potassium (ACK) lysing buffer for 3 minutes to lyse red blood cells. The ACK buffer was neutralized with 10-fold excess PBS and then the cell suspension was centrifuged to concentrate the cells. Cell suspensions from all tumors were stored on ice until analyzed by flow cytometry.
# For flow cytometry, samples of each cell suspension were incubated at room temperature for one hour with an antibody panel optimized for detection of effector and exhausted T cells (Tables 6 and 7). Prior to intracellular staining, samples were permeabilized and fixed using the eBioscience™ Foxp3 Transcription Factor Staining Buffer Set (ThermoFisher) according to the manufacturer's recommendations. Samples were then incubated for one hour with the intracellular staining mix, then centrifuged and resuspended for flow cytometric analysis. Following compensation measurements using commercial beads, fluorescence minus one (fmo) measurements were performed followed by measurements of all the samples. For each sample, at least 100,000 events were recorded. All analysis for flow cytometry data was performed using FlowJo™ (BD).
# T cells = test: scRNAseq analysis of MC38 tumor single cell suspensions; format: in vivo; details: MC38 syngeneic mouse, versus PBS
# From the text: as §1
# As detailed above, 15 samples of tumor single cell suspension were obtained for single cell RNA sequencing (Table 8). […]
substance,measurement,setting,value
pembrolizumab,Tumor growth inhibition (TGI),[1],significant tumor growth inhibition
same,Expression of PD-1 in CD8+ T cells derived from tumors,[2],reduced
same,Expression of TIGIT in CD8+ T cells derived from tumors,[2],reduced
same,Number of CD8+ T cells in the tumor,[2],increased
same,Density of T cells in scRNAseq manifold,T cells,enhanced
